Values of other authors, collected in patent US20120191185A1, “OPHTHALMIC INTRAOCULAR LENS FOR PROMOTING HEALING” (priority 2011, published 2012).

What was measured:
[1] = subconjunctival administration
[2] = tested on: posterior capsule opacification; settings: rabbits
[3] = primates
corneal anterior stroma = settings: mammals, clinical setting

In the case of `O=c1[nH]cc(F)c(=O)[nH]1` [5-fluorouracil], the ocular complications [1] is given as “corneal epithelial defects and other ocular complications” and the “effect on posterior capsule opacification” value [2] is given as “reduces posterior capsule opacification”.
In the case of `COc1cc2c(c(OC)c1OC)-c1ccc(OC)c(=O)cc1[C@@H](NC(C)=O)CC2` [colchicine], the “inhibition of lens epithelial cell proliferation and migration” value (lens epithelial cell) is listed as “potent inhibitor” and the “toxic effect on the optic nerve” value [3] is listed as “temporary toxic effect on the optic nerve”.
In the case of platelet derived growth factor, the “corneal anterior stroma healing” value (corneal anterior stroma) is given as “accelerate corneal anterior stroma healing”.
